# Experimental data published in article PMC10574094, “Discovery of a SHP2 Degrader with In Vivo Anti-Tumor Activity” (Molecules, 2023).
# What was measured:
# full-length SHP2 (1-528) = target: T1, full-length SHP2 (1-528) (Homo sapiens, UniProt Q06124); experiment: SHP2 allosteric inhibition assay (DiFMUP substrate); assay type: biochemical; conditions: full length SHP2, enzymatic assay
# T1 construct: The SHP2 protein (Aa 1–528) was cloned into a pET-21a(+) vector; His; made in house; host or cells: E. coli BL21(DE3)
# T1 sequence (Q06124 1-528): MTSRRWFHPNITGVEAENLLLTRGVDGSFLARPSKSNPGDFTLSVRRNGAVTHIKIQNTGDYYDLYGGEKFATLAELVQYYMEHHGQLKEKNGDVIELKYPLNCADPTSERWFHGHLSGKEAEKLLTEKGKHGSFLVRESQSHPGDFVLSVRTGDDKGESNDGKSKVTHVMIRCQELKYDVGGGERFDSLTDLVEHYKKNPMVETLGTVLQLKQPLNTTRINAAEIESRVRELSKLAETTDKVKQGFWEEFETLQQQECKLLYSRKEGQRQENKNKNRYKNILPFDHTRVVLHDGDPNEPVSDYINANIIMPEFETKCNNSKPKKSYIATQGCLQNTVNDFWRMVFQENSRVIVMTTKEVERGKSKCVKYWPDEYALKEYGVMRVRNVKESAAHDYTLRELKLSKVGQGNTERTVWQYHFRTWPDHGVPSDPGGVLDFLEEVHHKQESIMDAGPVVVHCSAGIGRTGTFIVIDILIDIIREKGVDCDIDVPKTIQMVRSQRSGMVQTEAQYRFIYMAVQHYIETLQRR
# Protocol: The SHP2 protein (Aa 1–528) was cloned into a pET-21a(+) vector. Bacterial BL21(DE3) (Novagen) was used as an expression host, and the induction of protein expression was carried out in LB media with 1 mM IPTG at 18 °C overnight. Cell pellets were stored at −80 °C for subsequent protein purification. Protein purification was conducted at 4 °C. Frozen cell pellets were lysed by sonication in 40 mL cold lysis buffer (50 mM Tris-HCl, pH 8.0, 150 mM NaCl, 5 mM imidazole, and 1 mM PMSF) per liter cell pellet. Cell lysates were clarified by centrifuging for 15 min at 6000 rpm. The supernatant was incubated with HisPur Ni-NTA resin (Thermo Scientific, Waltham, MA, USA) for 2 h, and then packed onto a column and washed with 50 resin volume of buffer A (50 mM Tris-HCl, pH 8.0, 500 mM NaCl, 5 mM imidazole). The HIS-tagged proteins were eluted with Buffer B (50 mM Tris-HCl, pH = 8.0, 500 mM NaCl, 300 mM imidazole,). Pooled HIS-protein-containing fractions were concentrated, loaded onto a HiLoad 26/600 Superdex 75 column (GE Healthcare Biosciences, Piscataway, NJ, USA), and eluted with storage buffer (50 mM Tris-HCl, pH 8.0, 150 mM NaCl, 1 mM DTT, 10% glycerol). Proteins used for inhibition assays were purified using Ni-NTA resin (Qiagen, Hilden, Germany) followed by size exclusion column chromatography (ÄKTA pure, Cytiva, Marlborough, MA, USA) and the purity was determined to be >95% by SDS-PAGE and Coomassie staining. The protein was aliquoted and stored at −80 °C.
# The catalytic activity of SHP2 (1-528) was assayed with 6,8-Difluoro-4-Methylumbelliferyl Phosphate (DiFMUP, Invitrogen, cat# D6567) as a substrate in 3,3-Dimethylglutaric acid (DMG) buffer (50 mM DMG, pH 7.0, 1 mM EDTA, 18 mM NaCl, 0.01% Triton X-100) at 25 °C. To determine the IC50 values, the assays were performed in 96-well plates (Corning Costar 3915). Series diluted compounds were incubated with 0.5 nM of SHP2 and 0.5 μM of peptide IRS1_pY1172(dPEG8)pY1222 (sequence H2N-LN(pY)IDLDLV(dPEG8)LST(pY)ASINFQK-amide). After 30 min incubation at room temperature, the substrate DiFMUP was added to the reaction (200 μM final concentration, total reaction volume is […]) and incubated at 25 °C for 10 min. The reaction was then quenched by adding 40 μL of 160 μM bpV(Phen) (Sigma–Aldrich, cat# SML0889) solution. The fluorescence signal was monitored with a CLARIOstar Plus Microplate Spectrophotometer (BMG Labtech) using excitation and emission wavelengths of 340 and 450 nm, respectively. The inhibitordose-response curves were analyzed using normalized IC50 regression curve fitting with control-based normalization. Data were fitted using Prism GraphPad 9.2.0.
# SHP2 = target: T2, SHP2 (Homo sapiens, UniProt Q06124); experiment: SHP2 degradation by Western blotting in HEK293 cells; assay type: cell-based; set-up: endogenous in cells; host or cells: HEK293; conditions: HEK293 cells; for SHP2 degradation (in words): 1 and 10 µM; for Degradation at 1 μM / Degradation at 10 μM: 16 h treatment
# T2 sequence (Q06124 1-593): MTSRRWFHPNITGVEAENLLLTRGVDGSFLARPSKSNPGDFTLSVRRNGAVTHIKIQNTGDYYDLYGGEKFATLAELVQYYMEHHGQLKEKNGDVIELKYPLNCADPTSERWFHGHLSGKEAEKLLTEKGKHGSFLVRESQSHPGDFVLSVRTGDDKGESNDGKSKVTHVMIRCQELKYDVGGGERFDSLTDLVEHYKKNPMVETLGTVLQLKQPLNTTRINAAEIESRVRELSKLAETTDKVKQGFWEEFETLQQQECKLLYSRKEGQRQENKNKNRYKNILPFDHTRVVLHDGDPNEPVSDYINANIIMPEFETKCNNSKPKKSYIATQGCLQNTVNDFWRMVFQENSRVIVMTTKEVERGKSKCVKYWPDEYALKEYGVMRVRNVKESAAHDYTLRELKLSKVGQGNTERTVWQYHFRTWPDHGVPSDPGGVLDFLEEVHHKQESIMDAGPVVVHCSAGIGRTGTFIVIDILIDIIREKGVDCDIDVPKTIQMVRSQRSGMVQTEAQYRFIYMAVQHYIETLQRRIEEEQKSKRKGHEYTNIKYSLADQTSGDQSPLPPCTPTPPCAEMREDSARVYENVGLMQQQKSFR
# Protocol: HEK293, SKBR3, U2OS, MCF7 and A549 cells were grown in DMEM supplemented with 10% FBS, penicillin (50 units/mL), and streptomycin (50 μg/mL) in a 37 °C incubator containing 5% CO2. […] For western-blot analysis, protein samples were separated by SDS-PAGE, transferred to nitrocellulose membranes, and incubated overnight at 4 °C with corresponding primary antibodies diluted in 5% BSA in phosphate-buffered saline Tween (PBST). SuperSignal™ West Pico PLUS (PI34580; Thermo Scientific) was used to visualize the antibodies in the bioanalytical imaging system (Azure Biosystems c500). […] Anti-PTP1B (ab244207) antibody was purchased from Abcam. For colony formation assay, a total of approximately 200–500 cells were seeded to each well in a 12-well plate.
# Supplemental Figures, Schemes, and Tables:
# Figure S1. Western blots of degradation assay for PROTAC screening. (A) Degradation assay of
# compo un ds i n Table 1 at 1 μM fo r 16 hours in H EK29 3 cells. (B) Degradation assay of compounds in Table
# 1 at 10 μM for 16 hours in HEK293 cells. (C) Degradation assay of compounds in Table 2 at 1 μM for 16
# [1] = Decomposition of CRBN-based PROTACs in DMEM media or water (LCMS); assay type: physicochemical; conditions: 10 μM, within 3 h, DMEM cell media or water, room temperature
# Source text: With the desired SHP2 ligand in hand, we synthesized an initial set of PROTAC molecules using pomalidomide or lenalidomide as a ligand of the E3 ligase Cereblon (CRBN), which is one of the most productive E3 in the development of PROTACs. […] This observation is consistent with the fact that phthalimides can be smoothly hydrolyzed in the presence of water and an organic base, as these PROTAC compounds contain a basic aliphatic amino group. Given that this free amino group in the allosteric inhibitors is essential for the binding affinity to SHP2 [28], we reasoned that pomalidomide or lenalidomide-based CRBN ligands are not suitable for the development of in vivo efficacious SHP2 degraders in this study due to stability considerations.
# Scheme S1. Decomposition of CRBN-based PROTACs in the presence of water. 10 μM compound 11 or
# 12 was incubated in DMEM media or water for 3 hours. The fina l co ncentrations of the compounds at
# the endpoint were quantified by LCMS.
# Table S1. Enzymatic IC50s of first generation SHP2 PROTACs against full length SHP2
# Compound ID Linker Structure Linker Length (atom) SHP2 IC50 (n M) […]
IC50 (full-length SHP2 (1-528)) [nM],SHP2 degradation (in words) (SHP2),Degradation at 1 μM (SHP2) [%],Degradation at 10 μM (SHP2) [%],compound converted into ring-opened products 13 [1],SMILES
139 ± 10.4,negligible to modest degradation,<10,<10,,"Cc1ncsc1-c1ccc([C@H](C)NC(=O)[C@@H]2C[C@@H](O)CN2C(=O)[C@@H](NC(=O)CCCCCNC(=O)CCCCCC2(CN)CCN(c3cnc(Sc4cccc(Cl)c4Cl)c(N)n3)CC2)C(C)(C)C)cc1 [SC5, (2S,4R)-1-((S)-2-(6-(6-(1-(6-amino-5-((2,3-dichlorophenyl)thio)pyrazin-2-yl)-4-(aminomethyl)piperidin-4-yl)hexanamido)hexanamido)-3,3-dimethylbutanoyl)-4-hydroxy-N-((S)-1-(4-(4-methylthiazol-5-yl)phenyl)ethyl)pyrrolidine-2-carboxamide]"
124 ± 21.6,negligible to modest degradation,<10,15,,"Cc1ncsc1-c1ccc([C@H](C)NC(=O)[C@@H]2C[C@@H](O)CN2C(=O)[C@@H](NC(=O)CCCCCCCNC(=O)CCCCCC2(CN)CCN(c3cnc(Sc4cccc(Cl)c4Cl)c(N)n3)CC2)C(C)(C)C)cc1 [SC7, (2S,4R)-1-((S)-2-(8-(6-(1-(6-amino-5-((2,3-dichlorophenyl)thio)pyrazin-2-yl)-4-(aminomethyl)piperidin-4-yl)hexanamido)octanamido)-3,3-dimethylbutanoyl)-4-hydroxy-N-((S)-1-(4-(4-methylthiazol-5-yl)phenyl)ethyl)pyrrolidine-2-carboxamide]"
132 ± 8.7,negligible to modest degradation,,25,,"Cc1ncsc1-c1ccc([C@H](C)NC(=O)[C@@H]2C[C@@H](O)CN2C(=O)[C@@H](NC(=O)CCCCCCCCCNC(=O)CCCCCC2(CN)CCN(c3cnc(Sc4cccc(Cl)c4Cl)c(N)n3)CC2)C(C)(C)C)cc1 [SC9, (2S,4R)-1-((S)-2-(10-(6-(1-(6-amino-5-((2,3-dichlorophenyl)thio)pyrazin-2-yl)-4-(aminomethyl)piperidin-4-yl)hexanamido)decanamido)-3,3-dimethylbutanoyl)-4-hydroxy-N-((S)-1-(4-(4-methylthiazol-5-yl)phenyl)ethyl)pyrrolidine-2-carboxamide]"
122 ± 19.1,,36,,,"Cc1ncsc1-c1ccc([C@H](C)NC(=O)[C@@H]2C[C@@H](O)CN2C(=O)[C@@H](NC(=O)CCCCCCCCCCNC(=O)CCCCCC2(CN)CCN(c3cnc(Sc4cccc(Cl)c4Cl)c(N)n3)CC2)C(C)(C)C)cc1 [SC10, (2S,4R)-1-((S)-2-(11-(6-(1-(6-amino-5-((2,3-dichlorophenyl)thio)pyrazin-2-yl)-4-(aminomethyl)piperidin-4-yl)hexanamido)undecanamido)-3,3-dimethylbutanoyl)-4-hydroxy-N-((S)-1-(4-(4-methylthiazol-5-yl)phenyl)ethyl)pyrrolidine-2-carboxamide]"
105 ± 15.6,,27,64,,"Cc1ncsc1-c1ccc([C@H](C)NC(=O)[C@@H]2C[C@@H](O)CN2C(=O)[C@@H](NC(=O)CCCCCCCCCCCNC(=O)CCCCCC2(CN)CCN(c3cnc(Sc4cccc(Cl)c4Cl)c(N)n3)CC2)C(C)(C)C)cc1 [SC11, (2S,4R)-1-((S)-2-(12-(6-(1-(6-amino-5-((2,3-dichlorophenyl)thio)pyrazin-2-yl)-4-(aminomethyl)piperidin-4-yl)hexanamido)dodecanamido)-3,3-dimethylbutanoyl)-4-hydroxy-N-((S)-1-(4-(4-methylthiazol-5-yl)phenyl)ethyl)pyrrolidine-2-carboxamide]"
,,,,over 90%,"NCC1(CCCCCC(=O)NCCCCCC(=O)Nc2cccc3c2C(=O)N(C2CCC(=O)NC2=O)C3=O)CCN(c2cnc(Sc3cccc(Cl)c3Cl)c(N)n2)CC1 (stereo not drawn) [compound 11, 6-(1-(6-amino-5-((2,3-dichlorophenyl)thio)pyrazin-2-yl)-4-(aminomethyl)piperidin-4-yl)-N-(6-((2-(2,6-dioxopiperidin-3-yl)-1,3-dioxoisoindolin-4-yl)amino)-6-oxohexyl)hexanamide]"
,,,,over 90%,"NCC1(CCCCCC(=O)NCCCCCC(=O)Nc2cccc3c2CN(C2CCC(=O)NC2=O)C3=O)CCN(c2cnc(Sc3cccc(Cl)c3Cl)c(N)n2)CC1 (stereo not drawn) [compound 12, 6-(1-(6-amino-5-((2,3-dichlorophenyl)thio)pyrazin-2-yl)-4-(aminomethyl)piperidin-4-yl)-N-(6-((2-(2,6-dioxopiperidin-3-yl)-1-oxoisoindolin-4-yl)amino)-6-oxohexyl)hexanamide]"
